Laboratory results from patent US12649750B2, “Macrocyclic compounds, compositions, and methods of using thereof” (Sionna Therapeutics Inc., priority 2022, dated 2026).

Molecular target: T1, NBD1 (Homo sapiens, UniProt P13569)
T1 construct: Purified recombinant NBD1 was produced using previously described methods; made in house
Experiment: Aggregation analysis using differential static light scattering (DSLS), thermal stability of NBD1 (ΔTagg)
Format: binding
Conditions: ΔTagg versus DMSO control, NBD1 0.2 mg/ml
Outline: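 NBD1 0.2 mg/ml, S200 buffer (50 mM Tris-HCl, 150 mM NaCl, 5 mM MgCl2, 2 mM ATP, 2 mM DTT, pH7.6) + 1% glycerol; cpd in DMSO; oil overlay. Ramp 25→70° C. at 1° C./min, DSLS images every 0.5° C. ΔTagg = Tagg (inflection) − mean DMSO Tagg.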

T1 sequence (P13569 423-646 limits assumed): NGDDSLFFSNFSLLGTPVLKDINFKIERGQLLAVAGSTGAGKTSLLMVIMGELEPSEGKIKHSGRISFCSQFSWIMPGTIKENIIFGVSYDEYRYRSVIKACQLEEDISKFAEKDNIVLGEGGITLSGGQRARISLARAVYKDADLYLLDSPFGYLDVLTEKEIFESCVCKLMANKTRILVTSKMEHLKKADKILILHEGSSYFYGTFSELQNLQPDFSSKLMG

Row | Compound | DSLS 3D (100 μM ΔT)
1 | Cn1nc2nc1-c1cc(ccn1)Cc1c(F)c(F)c3[nH]ccc3c1CCS(=O)(=O)CC(C)(C)CCC[C@]2(C)c1cccc(CC2(C(=O)O)CC2)c1 [Compound 306, 1-[[3-[(6R)-21,22-Difluoro-3,6,10,10-tetramethyl-12,12-dioxo-12λ6-thia-3,4,19,28,30-pentazapentacyclo[23.3.1.12,5.015,23.016,20]triaconta-1(29),2(30),4,15,17,20,22,25,27-nonaen-6-yl]phenyl]methyl]cyclopropanecarboxylic Acid] | A (an ΔTagg value less than or equal to 5 °C is marked “A”)
2 | Cn1nc2nc1-c1cc(ccn1)Cc1c(F)c(F)c3[nH]ccc3c1CCS(=O)(=O)CC(C)(C)CCC[C@]2(C)c1cccc(CC(C)(C)C(=O)O)c1 [Compound 307, 3-[3-[(6R)-21,22-Difluoro-3,6,10,10-tetramethyl-12,12-dioxo-12λ6-thia-3,4,19,28,30-pentazapentacyclo[23.3.1.12,5.015,23.016,20]triaconta-1(29),2(30),4,15,17,20,22,25,27-nonaen-6-yl]phenyl]-2,2-dimethyl-propanoic Acid] | A (an ΔTagg value less than or equal to 5 °C is marked “A”)
3 | Cn1nc2nc1-c1cc(ccn1)Sc1c(F)c(F)c3[nH]ccc3c1CCS(=O)(=O)CC(C)(C)CCC[C@]2(C)c1cccc(CC2(C(=O)O)CC2)c1 [Compound 308, 1-[[3-[(6R)-21,22-difluoro-3,6,10,10-tetramethyl-12,12-dioxo-12λ6,24-dithia-3,4,19,28,30-pentazapentacyclo[23.3.1.12,5.015,23.016,20]triaconta-1(29),2(30),4,15,17,20,22,25,27-nonaen-6-yl]phenyl]methyl]cyclopropanecarboxylic acid] | B (a value above 5 °C and less than or equal to 10 °C is marked “B”)
4 | Cn1nc2nc1-c1cc(ccn1)S(=O)(=O)c1c(F)c(F)c3[nH]ccc3c1CCS(=O)(=O)CC(C)(C)CCC[C@]2(C)c1cccc(CC2(C(=O)O)CC2)c1 [Compound 310, 1-[[3-[(6R)-21,22-difluoro-3,6,10,10-tetramethyl-12,12,24,24-tetraoxo-12λ6,24λ6-dithia-3,4,19,28,30-pentazapentacyclo[23.3.1.12,5.015,23.016,20]triaconta-1(29),2(30),4,15,17,20,22,25,27-nonaen-6-yl]phenyl]methyl]cyclopropanecarboxylic acid] | A (an ΔTagg value less than or equal to 5 °C is marked “A”)
5 | Cn1nc2nc1-c1cc(ccn1)Cc1c(F)cc3[nH]ccc3c1CCS(=O)(=O)CC(C)(C)CCC[C@]2(C)c1cccc(C[C@@H](O)CO)c1 [Compound 311, (2R)-3-[3-[(6R)-22-Fluoro-3,6,10,10-tetramethyl-12,12-dioxo-12λ6-thia-3,4,19,28,30-pentazapentacyclo[23.3.1.12,5.015,23.016,20]triaconta-1(29),2(30),4,15,17,20,22,25,27-nonaen-6-yl]phenyl]propane-1,2-diol] | A (an ΔTagg value less than or equal to 5 °C is marked “A”)
6 | Cn1nc2nc1-c1cc(ccn1)Cc1c(F)cc3[nH]ccc3c1CCS(=O)(=O)CC(C)(C)CCC[C@]2(C)c1cccc(C[C@H](O)CO)c1 [Compound 312, (2S)-3-[3-[(6R)-22-Fluoro-3,6,10,10-tetramethyl-12,12-dioxo-12λ6-thia-3,4,19,28,30-pentazapentacyclo[23.3.1.12,5.015,23.016,20]triaconta-1(29),2(30),4,15,17,20,22,25,27-nonaen-6-yl]phenyl]propane-1,2-diol] | A (an ΔTagg value less than or equal to 5 °C is marked “A”)
7 | Cn1nc2nc1-c1cc(ccn1)Cc1c(F)cc3[nH]ccc3c1CCS(=O)(=O)CC(C)(C)CCC[C@]2(C)c1cccc(CC2(C(=O)O)CC2)c1 [Compound 313, 1-[[3-[(6R)-22-Fluoro-3,6,10,10-tetramethyl-12,12-dioxo-12λ6-thia-3,4,19,28,30-pentazapentacyclo[23.3.1.12,5.015,23.016,20]triaconta-1(29),2(30),4,15,17,20,22,25,27-nonaen-6-yl]phenyl]methyl]cyclopropanecarboxylic acid] | B (a value above 5 °C and less than or equal to 10 °C is marked “B”)
8 | C[C@@H](Cc1cccc(C2(C)CCCC(C)(C)CS(=O)(=O)CCc3c(c(F)cc4[nH]ccc34)S(=O)(=O)c3ccnc(c3)-c3nc2nn3C)n1)C(=O)O (stereo partly drawn) [Compound 315E, (2S)-3-[6-(22-fluoro-3,6,10,10-tetramethyl-12,12,24,24-tetraoxo-12λ6,24λ6-dithia-3,4,19,28,30-pentazapentacyclo[23.3.1.12,5.015,23.016,20]triaconta-1(29),2(30),4,15,17,20,22,25,27-nonaen-6-yl)-2-pyridyl]-2-methyl-propanoic Acid] | A (an ΔTagg value less than or equal to 5 °C is marked “A”)
9 | C[C@H](Cc1cccc([C@@]2(C)CCCC(C)(C)CS(=O)(=O)CCc3c(c(F)c(F)c4[nH]ccc34)S(=O)(=O)c3ccc(F)c(c3)-c3nc2nn3C)c1)C(=O)O [Compound 320, (2R)-2-Methyl-3-[3-[(6R)-21,22,28-trifluoro-3,6,10,10-tetramethyl-12,12,24,24-tetraoxo-12λ6,24λ6-dithia-3,4,19,30-tetrazapentacyclo[23.3.1.12,5.015,23.016,20]triaconta-1(29),2(30),4,15,17,20,22,25,27-nonaen-6-yl]phenyl]propanoic acid] | B (a value above 5 °C and less than or equal to 10 °C is marked “B”)
10 | Cc1c[nH]c2c(F)c(F)c3c(c12)CCS(=O)(=O)CC(C)(C)CCC[C@](C)(c1cccc(C[C@@H](C)C(=O)O)c1)c1nc(n(C)n1)-c1cc(ccc1F)O3 [Compound 321, (2R)-2-Methyl-3-[3-[(6R)-21,22,28-trifluoro-3,6,10,10,17-pentamethyl-12,12-dioxo-24-oxa-12λ6-thia-3,4,19,30-tetrazapentacyclo[23.3.1.12,5.015,23.016,20]triaconta-1(29),2(30),4,15,17,20,22,25,27-nonaen-6-yl]phenyl]propanoic Acid] | A (an ΔTagg value less than or equal to 5 °C is marked “A”)
11 | C[C@H](Cc1cccc([C@@]2(C)CCCC(C)(C)CS(=O)(=O)CCc3c(c(F)c(F)c4[nH]cc(C#N)c34)Oc3ccc(F)c(c3)-c3nc2nn3C)c1)C(=O)O [Compound 322, (2R)-3-[3-[(6R)-17-Cyano-21,22,28-trifluoro-3,6,10,10-tetramethyl-12,12-dioxo-24-oxa-12λ6-thia-3,4,19,30-tetrazapentacyclo[23.3.1.12,5.015,23.016,20]triaconta-1(29),2(30),4,15,17,20,22,25,27-nonaen-6-yl]phenyl]-2-methyl-propanoic Acid] | B (a value above 5 °C and less than or equal to 10 °C is marked “B”)
12 | Cn1nc2nc1-c1cc(ccn1)Oc1c(F)c(F)c3[nH]ccc3c1CCS(=O)(=O)CC(C)(C)CCC[C@]2(C)c1cccc(CC(C)(C)C(=O)O)c1 [Compound 323, 3-[3-[(6R)-21,22-Difluoro-3,6,10,10-tetramethyl-12,12-dioxo-24-oxa-12λ6-thia-3,4,19,28,30-pentazapentacyclo[23.3.1.12,5.015,23.016,20]triaconta-1(29),2(30),4,15,17,20,22,25,27-nonaen-6-yl]phenyl]-2,2-dimethyl-propanoic Acid] | B (a value above 5 °C and less than or equal to 10 °C is marked “B”)
